Source: paper PMC11249646, “Small-Molecule Disruptors of the Interaction between Calcium- and Integrin-Binding Protein 1 and Integrin αIIbβ3 as Novel Antiplatelet Agents” (ACS Pharmacology & Translational Science, 2024)
pIC50: −log10 of the molar value. Read-outs that look alike come from different tables or passages of the source.

Molecular target: T1, CIB1 and αIIb interaction (CIB1-GST : F-αIIb peptide) (Homo sapiens, UniProt Q99828)
T1 construct: made in house; host or cells: BL-21 plus RIL cells (E. coli)
T1 sequence (Q99828 1-191): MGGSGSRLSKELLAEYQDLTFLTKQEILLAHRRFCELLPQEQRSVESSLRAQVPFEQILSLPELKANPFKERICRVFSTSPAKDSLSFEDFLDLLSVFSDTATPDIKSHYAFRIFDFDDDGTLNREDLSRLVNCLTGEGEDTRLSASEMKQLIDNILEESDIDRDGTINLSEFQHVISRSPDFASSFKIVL
Assay: FP assay, 1536-well qHTS format (primary and confirmatory screen)
Assay type: binding
Details: for Curve Class: negative sign = inhibitory curve; for pIC50: read-out: IC50; for IC50: IC50 [μM]

[1] = qHTS primary screen hits, Table S2, negative = inhibition
[2] = qHTS primary screen hits, Table S2, several classes where COUNT > 1
[3] = qHTS primary screen hits, Table S2
[4] = qHTS primary screen of LOPAC/NPACT libraries, negative = inhibition
[5] = qHTS primary screen of LOPAC/NPACT libraries
[6] = qHTS FP screen hits, Table S2, negative = inhibition

Efficacy (%) [1]	pIC50 [3]	Curve Class [3]	SMILES	also measured
-15%	5.25		CNC[C@H](O)c1cccc(O)c1 [NCGC00024257-06]	Curve Class [2]: -1.2
			CS(=O)(=O)O.CSc1ccc2c(c1)C(N1CCN(C)CC1)Cc1ccccc1S2 (stereo not drawn) [NCGC00024665-06]	Efficacy (%) [4]: -28%; Curve Class [5]: -2.4; pIC50 [5]: 4.25
-24%	4.05		C[C@](N)(Cc1ccc(O)c(O)c1)C(=O)O [NCGC00024667-14]	Curve Class [2]: -2.4
			CC(=O)N[C@@H](Cc1c[nH]c2ccccc12)C(=O)OCc1cc(C(F)(F)F)cc(C(F)(F)F)c1 [NCGC00024832-04]	Efficacy (%) [4]: -16%; Curve Class [5]: -1.2; pIC50 [5]: 4.40
			O=C(Nc1cccc(C(=O)Nc2ccc(S(=O)(=O)O)c3cc(S(=O)(=O)O)cc(S(=O)(=O)O)c23)c1)Nc1cccc(C(=O)Nc2ccc(S(=O)(=O)O)c3cc(S(=O)(=O)O)cc(S(=O)(=O)O)c23)c1 [NCGC00025069-04]	Efficacy (%) [4]: -37%; Curve Class [5]: -1.4; pIC50 [5]: 6.50
-42%	4.25	-2.2	Oc1ccccc1C1Nc2cccc3cccc(c23)N1 [NCGC00026112-04]	
			Cc1ccc(C)n1-c1cccc(C(=O)O)c1.O=C(O)C(F)(F)F [NCGC00060597-04]	Efficacy (%) [6]: -32%; pIC50 (qHTS FP screen hits, Table S2): 4.49
-23%	4.10		O=S1(=O)N=C(Oc2ccccc2)c2ccccc21 [NCGC00079022-02]	Curve Class [2]: -2.4
-26%	3.95	-2.4	NC(=O)N/N=C/c1ccc([N+](=O)[O-])o1 [NCGC00090686-07]	
-38%	3.90	-2.2	Cc1ccc(N)cc1O [NCGC00090702-02]	
			Oc1cccc2cccnc12 [NCGC00090708-05]	Efficacy (%): -29%; IC50: 117 µM
-29%	4.37		CC/C(=C(/CC)c1ccc(O)cc1)c1ccc(O)cc1 [NCGC00090749-11]	Curve Class [2]: -2.4
			O=C(O)c1cc(/N=N/c2ccc(S(=O)(=O)Nc3ccccn3)cc2)ccc1O [NCGC00090903-11]	Efficacy (%) [6]: -43%; Curve Class (qHTS FP screen hits, Table S2, one class per curve where COUNT > 1): -2.2; pIC50 (qHTS FP screen hits, Table S2): 4.60
-74%	4.55	-2.2	COc1cc([C@H]2Oc3cc([C@H]4Oc5cc(O)cc(O)c5C(=O)[C@@H]4O)ccc3O[C@@H]2CO)ccc1O [NCGC00091057-06]	
-60%	4.25	-2.4	CN(C)c1ccc(C(=C2C=CC(=[N+](C)C)C=C2)c2ccc(N(C)C)cc2)cc1.[Cl-] [NCGC00091112-09]	
-33%	3.95		Nc1cccc2c(N)cccc12 [NCGC00091284-03]	

Efficacy (%) [1]	pIC50 [3]	Curve Class [3]	SMILES	also measured
-134%	5.40		Cc1cc2nc3c(=O)[nH]c(=O)nc-3n(C[C@H](O)[C@H](O)[C@H](O)CO)c2cc1C [NCGC00091288-05]	
			O=C(N[C@@H](Cc1ccccc1)C(=O)CCl)OCc1ccccc1 [NCGC00093742-04]	Efficacy (%) [4]: -19%; Curve Class [5]: -1.2; pIC50 [5]: 5.00
-86%	4.72		CC(=O)[C@]1(O)Cc2c(O)c3c(c(O)c2[C@@H](O[C@H]2C[C@H](N)[C@H](O)[C@H](C)O2)C1)C(=O)c1ccccc1C3=O [NCGC00093976-06]	
-33%	4.40		Nc1ccc(-c2nc3ccc(-c4nc5cc(N)ccc5[nH]4)cc3[nH]2)cc1 [NCGC00094031-06]	Curve Class [2]: -2.2
			C[C@@]1(C2CCCC2)Cc2cc(OCC(=O)O)c(Cl)c(Cl)c2C1=O [NCGC00094034-06]	Efficacy (%) [4]: -28%; Curve Class [5]: -2.2; pIC50 [5]: 4.60
			N[C@@H](CCC(=O)N[C@H](CSN=O)C(=O)NCC(=O)O)C(=O)O [NCGC00094150-03]	Efficacy (%) [4]: -13%; Curve Class [5]: -1.2; pIC50 [5]: 4.90
			Oc1cc(O)cc(/C=C/c2ccc(O)c(O)c2)c1 [NCGC00094226-07]	Curve Class [5]: -1.2; pIC50 [5]: 5.49
			C=C1C(=O)O[C@@H]2[C@H]3O[C@]3(C)CC/C=C(/C)CC[C@@H]12 [NCGC00094250-05]	Efficacy (%) [4]: -19%; Curve Class [5]: -1.2; pIC50 [5]: 5.00
-40%	4.45	-2.2	C[C@H](O)C(=O)C1=Nc2c(nc(N)[nH]c2=O)NC1 [NCGC00094391-03]	
			N#CC(=C(\N)Sc1ccccc1N)/C(C#N)=C(/N)Sc1ccccc1N [NCGC00094462-03]	Efficacy (%) [4]: -18%; Curve Class [5]: -3; pIC50 [5]: 4.70
-41%			Oc1c(Br)cc(Br)c2cccnc12 [NCGC00094815-05]	Curve Class [2]: -2.2
-37%	4.25		Oc1ccc(Cl)c2cccnc12 [NCGC00095303-04]	Curve Class [2]: -2.4
-50%	4.30		Cc1c(Cl)cccc1-n1c(CCC(=O)O)ccc1-c1cccs1 [NCGC00100415-03]	Curve Class [2]: -2.2
-33%	4.30	-2.2	Cc1cc(Cl)ccc1-n1c(CCC(=O)O)ccc1-c1cccs1 [NCGC00100435-03]	
-18%	4.67		NC[C@H](O)c1ccc(O)c(O)c1 [NCGC00159406-07]	
-94%	4.00	-3	CC(C)=CCOc1ccc(/C=C/C(=O)c2ccc(OCC=C(C)C)cc2OCC(=O)O)cc1 [NCGC00159481-03]	

SMILES	Efficacy (%) [1]	pIC50 [3]	Curve Class [3]	also measured
CC(=O)c1c(O)c(C)c(O)c(Cc2c(O)c3c(c(C(=O)/C=C/c4ccccc4)c2O)OC(C)(C)C=C3)c1O [NCGC00025228-08]	-45%	4.55	-1.2	
Cc1cc(N2CCN(c3ccccc3)CC2)nc(-n2nc(C)cc2C)n1.O=C(O)C(F)(F)F [NCGC00067399-02]	-30%	4.25	-2.4	
Nc1ccccc1N [NCGC00090885-03]	-77%	3.95		
CCCCCCCCCCCC[N+](C)(C)CCOc1ccccc1.[Br-] [NCGC00091010-03]	-55%	4.05	-3	
CCCCCCCCCCCCCCCC[n+]1ccccc1.[Br-] [NCGC00091023-06]	-31%	4.05		Curve Class [2]: -2.4
CC[n+]1c(-c2ccccc2)c2cc(N)ccc2c2ccc(N)cc21.[Br-] [NCGC00091387-08]	-61%	4.25		Curve Class [2]: -2.4
CCOC(=O)c1c(NC(=O)CN2CCCCC2)sc2c1CCN(C(=O)OCC)C2.O=C(O)C(F)(F)F [NCGC00092717-02]	-31%	4.05	-2.4	
S=P(N1CC1)(N1CC1)N1CC1 [NCGC00095042-06]	-44%		-2.2	IC50: 126 µM
COc1ccc(Nc2cc(C)nc(-n3nc(C)cc3C)n2)cc1Cl.O=C(O)C(F)(F)F [NCGC00134126-02]	-30%	4.30		Curve Class [2]: -2.4
Oc1cc(Cl)ccc1Oc1ccc(Cl)cc1Cl [NCGC00159417-06]	-22%	4.00	-2.4	
